In patent publication US20250189527A1, “COMPOSITIONS AND METHODS FOR DETECTING, PREDICTING RISK OF DEVELOPING, AND TREATING LEPTOMENINGEAL DISEASE” (Duke University, priority 2022, published 2025):

B1: Recombinant GDNF: recombinant human/mouse glial cell line-derived neurotrophic factor (PeproTech) (protein, UniProt P39905 78-211, looked up)
Glial cell line-derived …: SPDKQMAVLPRRERNRQAAAANPENSRGKGRRGQRGKNRGCVLTAIHLNVTDLGLGYETKEELIFRYCSGSCDAAETTYDKILKNLSRNRRLVSDKVGQACCRPIAFDDDLSFLDDNLVYHILRKHSAKRCGCI

Legend:
CSF1R+ cells [1] = details: systemic (non-CNS) populations; cited from earlier work
GDNF = GDNF immunofluorescence on meninges cytospins from EO-LM2-engrafted CSF1R-GFP mice; type: in vivo, mouse; details: meninges cytospin at endpoint, veh. vs. PLX5622-treated EO-LM2 mice; P=0.0232
Source text: The mouse meninges were isolated as described by Louveau et al (Louveau, A., Filiano, A. J. & Kipnis, J. Meningeal whole mount preparation and characterization of neural cells by flow cytometry. Current protocols in immunology 121, e50-e50 (2018)). Briefly, the skull cap was removed and placed in a cold PBS bath under a dissecting microscope. Using fine forceps, the meninges were carefully peeled off the skull. Any remaining meninges on the brain surface were carefully removed with fine forceps while limiting the removal of residual brain parenchyma. The meninges were digested for 45 min at 37° C. in digest buffer (1×HBSS with calcium and magnesium (Corning), 5% FBS, 10 mM HEPES, DNase (Sigma Aldrich, 20 U mL^−1), Liberase DL (Sigma Aldrich, 10 mg mL^−1), Liberase TL (Sigma Aldrich, 10 mg mL^−1)) and lightly shaken every 10 min. The digested solution was then passed through a 70-μm cell strainer and a rubber syringe pump was used to gently push through any undigested tissue. […]
Glass 96-well plates were coated with 100 μL of poly-D-lysine (Sigma Aldrich, 0.1 mg mL^−1) in water at room temperature for 1 h and then washed three times with sterile PBS and allowed to air dry for 15 min in a tissue culture hood. […] ImageJ was used to quantify raw integrated pixel density per cell.

EO-LM2 cells [2] = test: Intravital microscopy of EO-LM2 cells in the LM of vehicle vs. PLX5622-treated mice; type: in vivo, mouse
Description: (§1) PLX5622 (ChemGood) was formulated into AIN-76A rodent chow at 1200 mg kg^−1 by Research Diets Inc. Formulated chow was irradiated prior to administration. CSF1R-GFP (MacGreen) mice were given AIN-76A±PLX5622 for three days prior to engraftment and continued to feed on formulated or control chow for the duration of the study.
Mice were anaesthetized using isoflurane and the cortical bone was exposed following a sagittal incision in the scalp. The head of the mouse was secured using a stereotactic apparatus. A micromotor high-speed drill (Stoelting) with a carbide 0.75-mm drill bit (Stoelting) was used to thin the skull immediately to the left of the sagittal suture and centered between the coronal suture and the lambdoid suture. The skull-thinned region was circular and approximately 1 mm in diameter and the thinning continued until the meningeal vessels were visible under a dissecting microscope and the remaining bone was about 50 μm thin. PBS was used to clean the surgical site and dissipate heat every 15 sec. High-resolution images of the leptomeninges were obtained through the skull thinned window using a Leica SP8 confocal and multiphoton microscope with a 25× water immersion lens. […]
(§2) Intravital and whole mount images were imported into ImageJ for quantification. […] Tissue bordered were then traced and the mean tdT signal was measured over total tissue area.

EO-LM2 cells [3] = test: Time to LMD progression (HLP score of 0.5) in EO-LM2-engrafted mice, vehicle vs. PLX5622; type: in vivo, mouse; details: PLX5622 chow 1200 mg kg^−1 from three days prior to engraftment, P=0.0002
Source text: (§3) FIG. 11A-Q: Meningeal macrophages promote BCC survival through GDNF/NCAM signaling. a, Volcano plot of differentially expressed genes in EO-LM2 vs. −P cells. b, Ncam1 mean fluorescence intensity (MFI) by flow cytometry. n=3 biological replicates. Two-sided, unpaired Student's t-test. c, Representative intravital microscopy (IVM) and quantification of EO-LM2 vs. −NCAM1KO cells in the LM of mice on day 3 post-engraftment. n=3 mice. Two-sided, unpaired Student's t-test. d, Hindlimb paralysis (HLP) incidence and representative brain section H&E of paired EO-LM2 vs. −NCAM1KO mice euthanized when either reached a clinical endpoint (EP). n=5 mice. […] Arrows=CSFIR+ cells (green). n=3 mice; n=18-43 cells quantified/mouse. […] Arrowheads=tdT+1833 cells. i, Flow cytometry quantification of GDNF expression in cells isolated from meninges of EO-LM2 mice. n=3 biological replicates. […] Two-sided, unpaired Student's t-test. m, Representative 3D IVM images of EO-LM2 cells (red, arrowheads) co-localizing with CSF1R+ cells (green) surrounding LM vessels (white) in veh. vs. PLX5622-treated mice on day 3 or 10 post-engraftment. n, Quantification of EO-LM2 and CSF1R co-localizing (co-loc.) or non-co-localizing (no-coloc.) cells in the LM of mice in (m). n−3 mice. […]

CSF1R+ cells [4] = test: Depletion of CSF1R+ cells in CSF1R-GFP reporter mice fed PLX5622 chow (whole mount and intravital imaging); type: in vivo, mouse; details: 1200 mg kg^−1 in AIN-76A rodent chow for three days; brain parenchyma and LM
Description: FIG. 16A-E: Meningeal macrophages co-localize with EO-LM2 cells and are depleted with the CSF1R inhibitor, PLX5622. a, Confocal intravital microscopy (IVM) of the brain leptomeninges (LM) showing tdTomato+EO-LM2 cells co-localizing with CSF1R+ myeloid cells in the perivascular space of LM vessels (white). Scale bar=[…]. b, Representative whole mount (brain parenchyma) and IVM (LM) images of CSF1R-GFP reporter mice treated with either control or PLX5622 (1200 mg kg^−1) formulated AIN-76A rodent chow for three days. CSF1R+ cells=green. Vessels=white. c, Quantification of the number of CSF1R+ cells per imaging field of view of mice in (b). Three 10× field of view images acquired per mouse. Unpaired, two-sided Student's t-test. n=3 mice per group. ***P=0.0001. ****P<0.0001. s.e.m. d, Dosing Strategy for experiment in FIG. 11k,l. e, Dosing strategy for experiment in FIG. 11m,n.
as §1, with “study. […]” for “study.”
as §2

EO-LM2 cells [5] = test: GDNF glucose starvation assay, EO-LM2 cells; type: cell-based, mouse; details: glucose free media+1% FBS, GDNF 100 ng mL^−1, 24 h, P=0.0120 vs. vehicle/isotype
Description: (§4) 1×10^5 1833 or EO-LM2 cells were seeded in glucose free or complete media+1% FBS in a 12-well plate. The cells were treated with recombinant human/mouse GDNF (PeproTech, 100 ng mL^−1) or vehicle (0.1% BSA in water) and anti-CD49f neutralizing antibody (Invitrogen, 2.5 μg mL^−1) or isotype control. The cells were incubated at 37° C. and 5% CO2 for 24 h (EO-LM2) or 48 h (1833) and then trypsinized and counted with a hemacytometer. The number of live cells in the glucose deprived conditions were then divided by the number of cells in the glucose complete condition to determine the percent of cells alive after glucose deprivation.

1833 cells = test: GDNF glucose starvation assay, 1833 cells; type: cell-based, human; details: glucose free media+1% FBS, GDNF 100 ng mL^−1, 48 h, P=0.0203 vs. vehicle/isotype
Description: as §4

EO-LM2 cells [6] = test: Intracerebroventricular (ICV) GDNF rescue experiment in tumored, CSF1R-depleted mice; type: in vivo, mouse; details: intraventricular GDNF vs. veh. ICV in PLX5622-treated tumored mice; P=0.0002
Source text: as §3

Molecule	effects on systemic CSF1R+ populations (CSF1R+ cells [1])	LM cells expressing GDNF (GDNF)	initial BCC invasion of the LM (EO-LM2 cells [2]; day 3 post-engraftment, veh. vs. PLX5622)	subsequent BCC expansion within the LM (EO-LM2 cells [2]; day 10 post-engraftment, veh. vs. PLX5622, P<0.0001)	time to LMD progression (time to HLP score of 0.5) (EO-LM2 cells [3])	depletion of CSF1R+ cells from the CNS (CSF1R+ cells [4])	protection from cell death in low glucose conditions (percent live cells after glucose deprivation) (EO-LM2 cells [5])	protection from cell death in low glucose conditions (percent live cells after glucose deprivation) (1833 cells)	LMD progression (time to HLP score of 0.5) (EO-LM2 cells [6])
COc1ncc(F)cc1CNc1ccc(Cc2c[nH]c3ncc(C)cc23)c(F)n1 [PLX5622]	modest effects	dramatic decrease	did not affect	did prevent	substantially prolonged	dramatically depletes			
B1							marked protection from cell death	marked protection from cell death	accelerated LMD progression
